Assay results as given in patent US20210220434A1, “Treatment of Vascular Occlusion by Activation of Notch Signaling” (The Regents of the University of California, priority 2018, published 2021).

Experiments:
[1] = tested on: distal middle cerebral artery occlusion (dMCAO) mouse model; assay: Collateral artery size and function after dMCAO stroke induction; assay type: in vivo
Text: (§1) FIGS. 6A, 6B, and 6C. […] FIG. 6A depicts the time course of the experiment, with recombinant DLL4 administered one day prior to and for seven days following dMCAO stroke induction. FIG. 6B: Collateral artery diameter, velocity, and flux, and the area between the vertical lines denotes the period of DLL4 administration. Triangles: rDLL4, Circles: Control. Control, n=5, Treated; n=5. *P<0.05, **P<0.01. FIG. 6C depicts ladder test results for mice are subject to behavior test at 15 to 17 days after experimental stroke, the scores being the average of the two measurements.
(§2) Collateral artery size and function was assessed at seven and fourteen days following injury.

[2] = tested on: distal middle cerebral artery occlusion (dMCAO) mouse model; assay: Ladder test of neurological function after dMCAO; assay type: in vivo
Text: as §1, §2

[3] = wild type C57BL/6J mice, dMCAO, daily iv for eight days from the day before dMCAO, day 7, vs control

Substance: rDLL4: recombinant mouse DLL4 (Delta-like ligand 4), a Notch activating ligand, given intravenously
- collateral artery size and function (diameter, velocity, flux) ([1]; day 14 after dMCAO, 7 days after administration was halted, vs control): Significant improvements in the treated mice persisted
- cerebral blood flow ([1]; following dMCAO, FIG. 6 legend): preserves cerebral blood flow
- growth of collaterals ([1]; following dMCAO, FIG. 6 legend): improves growth of collaterals
- collateral artery diameter [1, 3]: significantly improved
- collateral artery flux [1, 3]: significantly improved
- collateral artery velocity [1, 3]: significantly improved
- neurological function, ladder test ([2]; day 15 and 17 after dMCAO, vs control): higher in the treated mice
- neurological function ([2]; following dMCAO, FIG. 6 legend): improving neurological function
